From the METLIN SMRT retention time set (Domingo-Almenara et al. 2019)

Assay: gradient 5% acetonitrile 3 min, to 50% in 2 min, to 85% in 15 min, held 3 min, 100 µL/min
Conditions: column: Zorbax Extend-C18 2.1 x 50 mm; eluents: water / acetonitrile, 0.1% formic acid
Procedure, shortened: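 Retention times come from adduct peaks that were picked computationally and then checked by hand. The standards, pure and pooled in mixtures of ~100 molecules, were run on a Zorbax Extend-C18 column (2.1 × 50 mm, 1.8 μm) at 100 μL/min with water and acetonitrile, each with 0.1% formic acid. Detection was by quadrupole time-of-flight mass spectrometry in positive and negative ionization mode, with a dead volume of 40 μL and a dwell volume of 900 μL.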

| SMILES | RP-LC retention time |
| --- | --- |
| CCOc1ccc(CNC(=O)c2cc3c(=O)n(CC)c4ccccc4n3n2)cc1OC | 1180 s |
| Cc1ccc(NC(=O)N2CCC(OC3CCN(S(C)(=O)=O)CC3)CC2)cc1 | 738 s |
| CC(=O)c1sc(NC(=O)C2COc3ccccc3O2)nc1C (stereo not given) | 763 s |
| O=C(CN1C(=O)COc2ccc(S(=O)(=O)N3CCOCC3)cc21)NCCc1c[nH]c2ccccc12 | 777 s |
| Cc1cnc(C(=O)N2CCCC2c2nc(CCOCC3CC3)no2)cn1 (stereo not given) | 733 s |
| CCn1cc(-c2nc(C)c(C(=O)N3CCc4ccccc43)s2)c2cccnc21 | 1030 s |
| CCN1CCN(C(=O)C2CCN(S(=O)(=O)c3ccc4c(c3)sc(=O)n4C(C)C)CC2)CC1 | 650 s |
| COCc1ncc(C)n1CC1CN(C(=O)c2ocnc2C)C1 | 511 s |
| O=C(O)c1cccc(Nc2c(-c3ccc(Cl)cc3)nc3cnccn23)c1 | 757 s |
| COc1ccccc1NC(=O)C1CC(=O)N(c2ccc3oc(C)nc3c2)C1 (stereo not given) | 726 s |
| COCCNC(=O)C1CCN(C(=O)c2cc3oc(C)cc3n2Cc2c(F)cccc2Cl)CC1 | 804 s |
| CC(C)c1ccc(S(=O)(=O)N2CCC3(CCN(c4cccnc4)C3)C2)cc1 (stereo not given) | 736 s |
| Cc1ccc(-n2ccc(=O)c(-c3nc(-c4ccccc4Cl)no3)n2)cc1 | 958 s |
| CC(C)c1noc(C2(NC(=O)c3ccc(F)cc3)CCCCC2)n1 | 1010 s |
| CC(C)CCNC(=O)C1CCCN(c2ccnc(-c3ccc(F)cc3)n2)C1 (stereo not given) | 690 s |
| CCOc1ccc(N2C(=O)N[C@@H]3C[C@]2(C)Oc2ccc(OC)cc23)cc1 | 864 s |
| CSc1ccc(CNC(=O)c2c(C)oc3ccn(Cc4cccc(F)c4)c(=O)c23)cc1 | 1110 s |
| CCN(CC)CCCNC(=O)C1CCCN(C(=O)c2nnc(C(=O)Nc3ccc(F)cc3)s2)C1 (stereo not given) | 652 s |
| CCN(CC)c1nc2cc(C(=O)NCCC(C)C)ccc2c(=O)n1-c1ccccc1 | 1090 s |
| CC(=O)NCc1csc(C2CCCN(C(=O)c3cc(F)cc(F)c3)C2)n1 (stereo not given) | 684 s |
| O=C(Cc1ccsc1)NCCC1CCN(C(=O)Nc2cc(F)cc(F)c2)CC1 | 853 s |
| CNC(=O)c1ccc(-c2nc3cc(NS(=O)(=O)c4ccccc4Cl)ccc3n2C)cc1 | 633 s |

| SMILES | RP-LC retention time |
| --- | --- |
| COCCOCc1nc(C2CCCN2C(=O)c2ccoc2)no1 (stereo not given) | 656 s |
| COc1ccc(CC(=O)N2CCc3cn(C)c4cccc(c34)C2)cc1 | 946 s |
| COc1cccc(NC(=O)c2cnc3c(c2)c(=O)n(C)c(=O)n3C)c1 | 795 s |
| COc1ccc(N2CCN(C(=O)CN3C(=O)NC4(CCCCC4)C3=O)CC2)cc1 | 694 s |
| COC(=O)Nc1ccc2c(c1)C(=O)N(C)CCO2 | 587 s |
| O=C(NCCN1CCN(S(=O)(=O)c2ccc(C(F)(F)F)cc2)CC1)c1ccsc1 | 610 s |
| O=C(COc1ccc(Cl)cc1)Nc1ccccc1NC(=O)c1cccs1 | 887 s |
| CCOc1ccc(NC(=O)Cn2ccc3ccc(-c4nnc(CC)o4)cc32)cc1 | 851 s |
| COc1ccc(NS(=O)(=O)c2ccc(-c3nnc(C4CCC4)o3)o2)cc1Cl | 936 s |
| COc1cccc(-c2nc(C3CCN(S(=O)(=O)c4ccccc4F)CC3)no2)c1 | 1110 s |
| O=C(CC1CCN(C(=O)c2ccc3oc(C4CC4)nc3c2)CC1)NC1CCCC1 | 715 s |
| Cc1ccc(-n2nc(N3CCCC(C(=O)NCc4ccccc4F)C3)ccc2=O)cc1Cl (stereo not given) | 942 s |
| c1ccc(-c2nc(C3CCN(Cc4cccs4)C3)no2)nc1 (stereo not given) | 583 s |
| Cc1nc(-c2ccccc2)nc2c1CCC(=O)N2Cc1ccco1 | 1000 s |
| CCn1cc(C(=O)Nc2ccccc2C)c(=O)c2ccc(C)nc21 | 1090 s |
| CCOc1ccccc1NC(=O)Cc1c(C)nn(-c2nc(-c3ccc(F)cc3)cs2)c1C | 1290 s |
| Cc1ccn2c(Nc3ccc4c(c3)OCCO4)c(-c3ccc(Cl)cc3)nc2c1 | 717 s |
| Cn1cc(CCNC(=O)Nc2ccccc2Br)c2cccnc21 | 722 s |
| CCN1CCCn2cc(S(=O)(=O)Nc3ccc(C)cc3F)cc2C1=O | 729 s |
| CCN1c2cc(C)ccc2-n2cccc2C12CCN(C(=O)NCCCOC)CC2 | 931 s |
| CN(C)c1ccc(-c2noc(CCC(=O)Nc3ccc4c(c3)OCCO4)n2)cc1 | 875 s |
| Cc1ccc(S(=O)(=O)c2cnc(N3CCN(c4cc(C)ccc4C)CC3)nc2N)cc1 | 1310 s |

| SMILES | RP-LC retention time |
| --- | --- |
| CC(C)c1ccc(S(=O)(=O)c2ccc(=O)n(CC(=O)N3CCN(c4ccc(F)cc4)CC3)n2)cc1 | 1000 s |
| O=C(Nc1ccc(-c2nnc3n2CCCC3)cc1)c1ccn[nH]1 | 595 s |
| COC(=O)c1cc(C)nc2c1c(=O)n(Cc1cccc(C#N)c1)c(=O)n2C | 952 s |
| O=C(Nc1ccc(F)cc1F)C1CCN(S(=O)(=O)c2cc(-c3noc(C4CC4)n3)cs2)CC1 | 997 s |
| O=C(NCCCn1cccc1)c1ccc(F)c(F)c1 | 791 s |
| COCCNC(=O)C1c2ccccc2CC(=O)N1C(C)C (stereo not given) | 648 s |
| CCc1nc2c(c(=O)n1CC(=O)Nc1cccc(OC)c1)CN(Cc1ccccc1)CC2 | 652 s |
| COc1ccc(-c2noc(-c3nnn4c3COC(c3ccc(C)cc3C)C4)n2)cc1F (stereo not given) | 1260 s |
| O=C(Nc1cccc2nsnc12)C1CCN(c2ccc(-c3ccc(F)cc3)nn2)CC1 | 681 s |
| CCN1CCN(c2c(C(=O)c3ccc(C)c(C)c3)cnc3cc(OC)c(OC)cc23)CC1 | 579 s |
| CC(=O)c1ccc(NC(=O)c2nc(N3CCCC3)c3c(C)cc(C)nc3n2)cc1 | 646 s |
| COc1cc(-c2noc(C3CC(=O)N(c4ccc(C(C)C)cc4)C3)n2)cc(OC)c1OC (stereo not given) | 605 s |
| CNC(=O)[C@H]1O[C@@H](n2cnc3c(NCc4cccc(I)c4)nc(Cl)nc32)C(O)[C@H]1O (stereo not given in full) | 768 s |
| c1cncc(CN2CCCC(OCc3nc(-c4ccncc4)no3)C2)c1 (stereo not given) | 557 s |
| CC1CCCCN1CCCNC(=O)C1CCN(c2nc3cccnc3s2)CC1 (stereo not given) | 587 s |
| Cc1cc(C)cc(NC(=O)Cc2csc3nc(-c4ccc(C)c(C)c4)cn23)c1 | 966 s |
| COc1ccc(Cl)cc1S(=O)(=O)N1CCC(c2cc3n(n2)CCCNC3=O)CC1 | 722 s |
| CC(C)Cc1ccc(C(C)C(=O)N2CC(=O)Nc3ccccc32)cc1 (stereo not given) | 968 s |
| CCc1cc(OCC(=O)N2CCN(c3ccccn3)CC2)nc2c1c(C)nn2-c1ccc(C)cc1 | 790 s |
| COc1ccc(N2CCN(c3nc(C(=O)N4CCN(C(C)C)CC4)cs3)CC2)cc1 | 627 s |
| Cc1ccc(C)c(-c2csc(NC(=O)c3sc(-c4ccccc4)nc3C)n2)c1 | 1350 s |
